Each structure is given as a SMILES string.

We go through 34 compounds from patent US20260216294A1, “BETA 2-ADRENERGIC RECEPTOR AGONISTS FOR TREATMENT OR PREVENTION OF MUSCLE WASTING” (ATROGI AB, priority 2023, published 2026).

Experiment [1] deals with L6-myotubes. As to the kind of experiment: Measurement of intracellular cAMP levels in differentiated L6-myotubes (Biological Example 3). Conditions: 0.25 h. It counts as cell-based. The essentials: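 Intracellular cAMP quantified by AlphaScreen after ethanol extraction and lysis of L6 myotubes. Cells were serum-starved overnight, then exposed for 15 min to compound (final 1×10^−5 M) or isoprenaline in IBMX-containing (1 mM) HBSS buffer, pH 7.4.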

Experiment [2] relates to L6-myotubes. Nature of the experiment: Glucose uptake in differentiated L6-myotubes (Biological Example 2). It is filed as cell-based. The conditions noted are these: read-out: Biological example 2 (GU). An outline of the steps:
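Uptake was quantified as radioactivity in 0.2 M NaOH lysates after a 10 min pulse of 50 nM ^3H-2-deoxyglucose. The pulse followed two agonist exposures at 1×10^−5 M final (isoprenaline or test compound): 1 h 40 min, then 20 min in glucose-free medium after washing. L6 myotubes had been starved overnight in medium with 0.5% fatty-acid-free BSA.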

Where [3] appears, read: intracellular cAMP in differentiated L6-myotubes, compound at 10 μM, activity relative to isoproterenol at 10 μM.
Where [4] appears, read: glucose uptake in differentiated L6-myotubes, compound at 10 μM, activity relative to isoproterenol at 10 μM.
Setting [5] is: intracellular cAMP, compound at 10 μM relative to isoproterenol at 10 μM.
Where [6] appears, read: glucose uptake, compound at 10 μM relative to isoproterenol at 10 μM.

On to `O=C(N[C@H]1CC[C@@H](CNC[C@H](O)c2cccc(F)c2)CC1)c1ccccc1` [Compound 316], for which the values for the Emax at 10 µM in the experiment on L6-myotubes [1] (setting [3]) and in the experiment with L6-myotubes [2] (setting [4]) were less than 25% and 50 to 75%, respectively.
For `CC12CC(C1)[C@@H]([C@H](O)c1cccc(N)c1F)N2` [Compound 244, (R)-{(S)-1-methyl-2-azabicyclo[[2.1.1]]hex-3-yl}(3-amino-2-fluorophenyl)methanol] the same measures were less than 25% and 50 to 75%.
Taken in the same sequence, the figures for `CCC[C@H]1CCCC[C@@H]([C@H](O)c2cncc(F)c2)N1` [Compound 234, (R)-[(2S,7S)-7-propyl-2-azepanyl](5-fluoro-3-pyridyl)methanol] were less than 25% and greater than 75%.
In the case of `CC(=O)N[C@H]1CC[C@H](CNC[C@H](O)c2cccc(F)c2)CC1` [Compound 308], the Emax at 10 µM with L6-myotubes [1] (setting [3]) was less than 25%; with L6-myotubes [2] (setting [4]) it was 50 to 75%.
In the case of `CC(C)(NC[C@H](O)c1cccc(F)c1)[C@H]1CC[C@@H](C(=O)O)CC1` [Compound 369], the Emax at 10 µM in the experiment with L6-myotubes [1] (setting [3]) is less than 25%; in the experiment on L6-myotubes [2] (setting [4]), 50 to 75%.
`CCCC(C)NCC(O)c1cc(Cl)c(N)c(C(F)(F)F)c1` (centres unmarked) [Compound 33, 1-[4-amino-3-chloro-5-(trifluoromethyl)phenyl] -2-(1-methylbutylamino)-1-ethanol]: the Emax at 10 µM in the experiment on L6-myotubes [1] (setting [5]) was greater than 75%; in the experiment on L6-myotubes [2] (setting [6]) it was 50 to 75%.
As to `O[C@H](c1cccc(F)c1)C12CCC(CCc3ccc(Cl)cc3)(CC1)N2` [Compound 528, (R)-{4-[2-(p-chlorophenyl)ethyl]-7-azabicyclo[[2.2.1]]hept-1-yl}(m-fluorophenyl)methanol], the Emax at 10 µM with L6-myotubes [1] (setting [3]) and in the experiment with L6-myotubes [2] (setting [4]) was less than 25% in each case.
As for `CNS(=O)(=O)[C@H]1CC[C@@H](CC(C)(C)NC[C@H](O)c2cncc(F)c2)CC1` [Compound 495], the Emax at 10 µM was less than 25% in the experiment with L6-myotubes [1] (setting [3]) and 50 to 75% with L6-myotubes [2] (setting [4]).
In the case of `CCCC(C)NC(C)C(O)c1ccc(O)cc1` (centres unmarked) [Compound 13, 1-(p-hydroxyphenyl)-2-(1-methylbutylamino)-1-propanol], the Emax at 10 µM in the experiment with L6-myotubes [1] (setting [5]) was less than 25%; with L6-myotubes [2] (setting [6]), 50 to 75%.
Turning to `CC(C)(CC[C@H]1CC[C@@H](O)CC1)NC[C@H](O)c1ccccc1F` [Compound 320, (R)-2-{1,1-dimethyl-3-[(1s,4R)-4-hydroxycyclohexyl]propylamino}-1-(o-fluorophenyl)-1-ethanol], the Emax at 10 µM in the experiment on L6-myotubes [1] (setting [3]) is 25 to 50%; in the experiment on L6-myotubes [2] (setting [4]) it was greater than 75%.
Regarding `CCCC1(CCC)CC[C@H]([C@@H](O)c2cccc(F)c2)N1` [Compound 158, (S)-[(R)-5,5-dipropyl-2-pyrrolidinyl](m-fluorophenyl)methanol], the Emax at 10 µM in the experiment with L6-myotubes [1] (setting [5]) and with L6-myotubes [2] (setting [6]) was less than 25% in each case.
For `CC(C)(C[C@H]1CC[C@@H](NC(=O)OC(C)(C)C)CC1)NC[C@H](O)c1cccc(C(F)(F)F)n1` [Compound 450, (1R,4s)-4-(2-{(S)-2-hydroxy-2-[6-(trifluoromethyl)-2-pyridyl]]ethylamino}-2-methylpropyl)cyclohexyl 2-methyl-2-propanecarbamate], the Emax at 10 µM in the experiment with L6-myotubes [1] (setting [3]) and in the experiment on L6-myotubes [2] (setting [4]) was less than 25% throughout.
As for `Cc1ncccc1[C@@H](O)CNC(C)(C)C[C@H]1CC[C@H](NS(C)(=O)=O)CC1` [Compound 435, (R)-2-{1,1-dimethyl-2-[(1r,4R)-4-(mesylamino)cyclohexyl]ethylamino}-1-(2-methyl-3-pyridyl)-1-ethanol], the Emax at 10 µM is less than 25% in the experiment with L6-myotubes [1] (setting [3]) and 25 to 50% in the experiment with L6-myotubes [2] (setting [4]).
On to `CO[C@@H]1CCC[C@H](C(C)(C)NC[C@H](O)c2cccc(F)c2)C1` [Compound 255, (R)-2-{1-[(1S,3R)-3-methoxycyclohexyl]-1-methylethylamino}-1-(m-fluorophenyl)-1-ethanol], for which the Emax at 10 µM was less than 25% in the experiment with L6-myotubes [1] (setting [3]) and greater than 75% in the experiment with L6-myotubes [2] (setting [4]).
Turning to `CCCCNCC(O)c1cc(Cl)c(N)c(Cl)c1` (centres unmarked) [Compound 29, 1-(4-amino-3,5-dichlorophenyl)-2-(butylamino)-1-ethanol], the Emax at 10 µM is 25 to 50% in the experiment on L6-myotubes [1] (setting [5]) and greater than 75% with L6-myotubes [2] (setting [6]).
`CC(C)(C[C@H]1CC[C@H](S(N)(=O)=O)CC1)NC[C@H](O)c1cncc(F)c1` [Compound 518, (1R,4r)-4-{2-[(R)-2-(5-fluoro-3-pyridyl)-2-hydroxyethylamino]-2-methylpropyl} cyclohexanesulfonamide]: the Emax at 10 µM in the experiment on L6-myotubes [1] (setting [3]) was less than 25%; with L6-myotubes [2] (setting [4]), 50 to 75%.
For `CO[C@H]1CC[C@H](C[C@H]2CC[C@H]([C@H](O)c3cccc(F)c3)N2)CC1` [Compound 335] the same measures were less than 25% and greater than 75%.
In the case of `O[C@@H](c1cccc(F)c1)[C@H]1CCC2(CCCC2)N1` [Compound 169], the Emax at 10 µM in the experiment on L6-myotubes [1] (setting [5]) and in the experiment with L6-myotubes [2] (setting [6]) was less than 25% throughout.
With `CO[C@H]1CC[C@H](CCC(C)(C)NC[C@H](O)c2cncc(F)c2)CC1` [Compound 267, (R)-2-{1,1-dimethyl-3-[(1r,4S)-4-methoxycyclohexyl]propylamino}-1-(5-fluoro-3-pyridyl)-1-ethanol], the Emax at 10 µM in the experiment on L6-myotubes [1] (setting [3]) is less than 25%; with L6-myotubes [2] (setting [4]) it was 25 to 50%.
On to `CC12CCC([C@H](O)c3ccccc3Cl)(CC1)N2` [Compound 195, (R)-(o-chlorophenyl)(4-methyl-7-azabicyclo[[2.2.1]]hept-1-yl)methanol], for which the Emax at 10 µM in the experiment on L6-myotubes [1] (setting [5]) was less than 25%; with L6-myotubes [2] (setting [6]), greater than 75%.
As for `COc1ccc(CC23CCC([C@@H](O)c4cccc(F)c4)(CC2)N3)cc1` [Compound 400, (S)-(m-fluorophenyl){4-[(p-methoxyphenyl)methyl]-7-azabicyclo[[2.2.1]]hept-1-yl}methanol], the Emax at 10 µM was less than 25% with L6-myotubes [1] (setting [3]) and 50 to 75% with L6-myotubes [2] (setting [4]).
For `O[C@@H](c1cncc(F)c1)C12CCC(COCc3ccc(F)cc3)(CC1)N2` [Compound 442, (S)-(4-{[(p-fluorophenyl)methoxy]methyl}-7-azabicyclo[[2.2.1]]hept-1-yl)(5-fluoro-3-pyridyl)methanol] the same measures were less than 25% and 25 to 50%.
On to `CCC12CCC([C@@H](O)c3cccc(F)c3)(CC1)N2` [Compound 182, (S)-(m-fluorophenyl)(4-propyl-7-azabicyclo[[2.2.1]]hept-1-yl)methanol], for which the Emax at 10 µM with L6-myotubes [1] (setting [5]) and in the experiment on L6-myotubes [2] (setting [6]) was less than 25% each time.
Consider `CS(=O)(=O)N(Cc1ccccc1)[C@H]1CC[C@H](C[C@@H]2CC[C@H]([C@H](O)c3cccc(F)c3)N2)CC1` [Compound 502], for which the Emax at 10 µM in the experiment with L6-myotubes [1] (setting [3]) and in the experiment with L6-myotubes [2] (setting [4]) was less than 25% each time.
`COc1ccc(C[C@@H]2CC[C@H]([C@@H](O)c3cccc(F)c3)N2)cc1` [Compound 372, (S)-{(2R,5S)-5-[(p-methoxyphenyl)methyl]-2-pyrrolidinyl}(m-fluorophenyl)methanol]: the values for the Emax at 10 µM in the experiment on L6-myotubes [1] (setting [3]) and with L6-myotubes [2] (setting [4]) were less than 25% and greater than 75%, respectively.
As for `CO[C@H]1CC[C@H](CCCNC[C@H](O)c2cncc(F)c2)CC1` [Compound 261, (R)-1-(5-fluoro-3-pyridyl)-2-{3-[(1r,4S)-4-methoxycyclohexyl]propylamino}-1-ethanol], the Emax at 10 µM in the experiment on L6-myotubes [1] (setting [3]) and in the experiment on L6-myotubes [2] (setting [4]) was less than 25% in each case.
As for `O[C@H](c1cncc(F)c1)C12CCC(CCCc3ccccc3)(CC1)N2` [Compound 532, (R)-(5-fluoro-3-pyridyl){4-(3-phenylpropyl)-7-azabicyclo[[2.2.1]]hept-1-yl}methanol], the Emax at 10 µM lay within 25 to 50% in the experiment on L6-myotubes [1] (setting [3]) and 50 to 75% with L6-myotubes [2] (setting [4]).
For `COc1ccc(C[C@@H]2CC[C@H]([C@@H](O)c3cncc(F)c3)N2)cc1` [Compound 377, (S)-{(2R,5S)-5-[(p-methoxyphenyl)methyl]-2-pyrrolidinyl}(5-fluoro-3-pyridyl)methanol] the same measures were less than 25% and greater than 75%.
In the case of `O[C@@H](CNC[C@H]1CC[C@H](OCc2ccccc2)CC1)c1cncc(F)c1` [Compound 273, (R)-1-(5-fluoro-3-pyridyl)-2-({[(1r,4R)-4-(benzyloxy)cyclohexyl]methyl}amino)-1-ethanol], the Emax at 10 µM with L6-myotubes [1] (setting [3]) is less than 25%; in the experiment with L6-myotubes [2] (setting [4]), 25 to 50%.
In the case of `CCC(C)NCC(O)c1ccc(O)cc1` (centres unmarked) [Compound 5, 2-(sec-butylamino)-1-(p-hydroxyphenyl)-1-ethanol], the results for the Emax at 10 µM in the experiment on L6-myotubes [1] (setting [5]) and in the experiment on L6-myotubes [2] (setting [6]) were less than 25% and 50 to 75%, respectively.
For `CO[C@H]1CC[C@H](C[C@H]2CC[C@H]([C@H](O)c3cncc(F)c3)N2)CC1` [Compound 341], the results for the Emax at 10 µM in the experiment on L6-myotubes [1] (setting [3]) and in the experiment on L6-myotubes [2] (setting [4]) were less than 25% and greater than 75%, respectively.
Take `CCC[C@H](C)NC[C@H](O)c1ccc(F)cc1` [Compound 53, (R)-2-[(S)-1-methylbutylamino]-1-(p-fluorophenyl)-1-ethanol]: the results for the Emax at 10 µM in the experiment on L6-myotubes [1] (setting [5]) and with L6-myotubes [2] (setting [6]) were less than 25% and 50 to 75%, respectively.
With `CC(=O)N[C@H]1CC[C@H](C(C)(C)NC[C@H](O)c2cncc(F)c2)CC1` [Compound 346, N-[(1R,4r)-4-{1-[(R)-2-(5-fluoro-3-pyridyl)-2-hydroxyethylamino]-1-methylethyl}cyclohexyl] acetamide], the Emax at 10 µM in the experiment on L6-myotubes [1] (setting [3]) was less than 25%; with L6-myotubes [2] (setting [4]), greater than 75%.
Taken in the same sequence, the figures for `CC(=O)N[C@H]1CC[C@H](CCC(C)(C)NC[C@H](O)c2cncc(F)c2)CC1` [Compound 361, N-[(1R,4r)-4-{3-[(R)-2-(5-fluoro-3-pyridyl)-2-hydroxyethylamino]-3-methylbutyl}cyclohexyl] acetamide] were less than 25% and greater than 75%.
